One data set relates to Trypanosoma cruzi. Also on record: method as in earlier work. Conditions: PubChem AID 1314398; read-out: effective against Trypanosoma cruzi; cited from earlier work.
Data set [1] concerns A. baumannii (CCUG #57035). Kind of data set: Antibacterial activity against isolates (Omnilog, Biolog redox dye). The note with it: for EC50 / EC90: Acinetobacter baumannii, CCUG57035, ca-MH broth, 24 h, 37 °C; for Selectivity index A. baumannii (CCUG #57035): SI = ((EC50 MCF-7 + EC50 HepG2)/2)/EC50 bacterial strain. The format is cell-based, Acinetobacter baumannii. The protocol: (§1) The antibacterial activities of eight compounds (1, 3, 4, 6, 8, 10, 16, and 17) were tested against 10 different isolates of Gram-negative bacteria from human and other sources, two E. coli (CCUG #67180 and CCUG #17620/ATCC #25922, control strain), two K. pneumoniae (CCUG #58547 and CCUG #225T), two P. aeruginosa (CCUG #17619 and CCUG #59347), two A. baumannii (CCUG #57035 and CCUG #57250), E. cloacae (CCUG #6323T), and E. hormaechei (CCUG #58962) in a 96-well plate format. […] Bacterial mass from the ten isolates grown overnight on horse blood or Mueller–Hinton agar plates was suspended in ca-MH and adjusted to a final inoculum cell density of ~5 × 10^5 CFU/mL. For all assays, Biolog redox dye A diluted 100× from the stock solution was used for measurements of all ten isolates (up to a total volume of 120 µL per well). All plates included one well per isolate with only inoculum and dye but no test compound (i.e., positive control) and one well per isolate with inoculum, dye and DMSO diluted 1667×, corresponding to the DMSO concentration in the wells with the highest concentration of test compound. All measurements were performed using the Omnilog microplate reader (Biolog, Hayward, CA, USA) where the 96-well plates were read at 15 min intervals for a total of 24 h at 37 °C.

Data set [2] relates to P. carotovorum (NBRC/ATCC #3380). The experiment in a line: Antibacterial resazurin assay, laboratory strain. The note with it: for EC50 / EC90: Pectobacterium carotovorum, ATCC3380, 18 h; for EC50: read-out: Pcar EC50, laboratory strain, 18 h, 37 °C, AlamarBlue; for EC90: read-out: Pcar EC90; for Selectivity index P. carotovorum: mean of MCF-7 and HepG2 EC50 over bacterial EC50, laboratory strain.

Data set [3] has as its system P. aeruginosa (CCUG #17619). Kind of data set: Antibacterial activity against isolates (Omnilog, Biolog redox dye). It counts as cell-based, Pseudomonas aeruginosa. Conditions: for EC50 / EC90: Pseudomonas aeruginosa, CCUG17619, ca-MH broth, 24 h, 37 °C; for Selectivity index P. aeruginosa (CCUG #17619): SI = ((EC50 MCF-7 + EC50 HepG2)/2)/EC50 bacterial strain. On the procedure: (§2) The antibacterial activities of eight compounds (1, 3, 4, 6, 8, 10, 16, and 17) were tested against 10 different isolates of Gram-negative bacteria from human and other sources, two E. coli (CCUG #67180 and CCUG #17620/ATCC #25922, control strain), two K. pneumoniae (CCUG #58547 and CCUG #225T), two P. aeruginosa (CCUG #17619 and CCUG #59347), two A. baumannii (CCUG #57035 and CCUG #57250), E. cloacae (CCUG #6323T), and E. hormaechei (CCUG #58962) in a 96-well plate format. The compounds to test were 3-fold diluted in six steps in cation-adjusted Mueller-Hinton (ca-MH) broth to final concentrations spanning from 30 to 0.12 µM, i.e., a 1667–416,667 times dilution from the 50 mM stocks. Bacterial mass from the ten isolates grown overnight on horse blood or Mueller–Hinton agar plates was suspended in ca-MH and adjusted to a final inoculum cell density of ~5 × 10^5 CFU/mL. For all assays, Biolog redox dye A diluted 100× from the stock solution was used for measurements of all ten isolates (up to a total volume of 120 µL per well). All plates included one well per isolate with only inoculum and dye but no test compound (i.e., positive control) and one well per isolate with inoculum, dye and DMSO diluted 1667×, corresponding to the DMSO concentration in the wells with the highest concentration of test compound. All measurements were performed using the Omnilog microplate reader (Biolog, Hayward, CA, USA) where the 96-well plates were read at 15 min intervals for a total of 24 h at 37 °C.

Data set [4] has as its system K. pneumoniae (CCUG #58547). The description is as above. The format is cell-based, Klebsiella pneumoniae. Conditions: for EC50 / EC90: Klebsiella pneumoniae, CCUG58547, ca-MH broth, 24 h, 37 °C; for Selectivity index K. pneumoniae (CCUG #58547): SI = ((EC50 MCF-7 + EC50 HepG2)/2)/EC50 bacterial strain. On the procedure:
as §1

A short description of data set [5]: Cytotoxicity assay (PrestoBlue) HepG2. It counts as cell-based. The note with it: human, HepG2 cells (hepatoma cell line), 24 h incubation.
Data set [6] relates to E. coli MG1655 (CGSC #6300). Kind of data set: Antibacterial resazurin assay, laboratory strain. The note with it: for EC50 / EC90: Escherichia coli, MG1655, 18 h; for EC50: read-out: Eco EC50; for EC90: read-out: Eco EC90; for Selectivity index E. coli: mean of MCF-7 and HepG2 EC50 over bacterial EC50, laboratory strain.
For another data set, the system named is E. cloacae (CCUG #6323T). Kind of data set: Antibacterial activity against isolates (Omnilog, Biolog redox dye). It counts as cell-based, Enterobacter cloacae. The note with it: for EC50 / EC90: Enterobacter cloacae, ca-MH broth, 24 h, 37 °C; for Selectivity index E. cloacae (CCUG #6323T): SI = ((EC50 MCF-7 + EC50 HepG2)/2)/EC50 bacterial strain. On the procedure:
as §2

Data set [7] concerns K. pneumoniae (CCUG #225T). Described as above. The format is cell-based, Klebsiella pneumoniae. Conditions: for EC50 / EC90: Klebsiella pneumoniae, ca-MH broth, 24 h, 37 °C; for Selectivity index K. pneumoniae (CCUG #225T): SI = ((EC50 MCF-7 + EC50 HepG2)/2)/EC50 bacterial strain. The protocol:
as §2

For a further data set, the system named is Plasmodium falciparum. Also on record: method as in PMID 28674055. The note with it: erythrocyte stage; cited from earlier work.

Consider `N=C(N)Nc1ccc(-c2ccc(-c3ccc(NC(=N)N)cc3Cl)o2)c(Cl)c1` [Compound 1, 2,5-Bis(2-chloro-4-guanidinophenyl)furan], for which, in the data set on Trypanosoma cruzi, the EC50 is 0.29 µM. Also, in data set [1], the EC50 was 4.7 µM, the EC90 was 6.3 µM and the “Selectivity index A. baumannii (CCUG #57035)” value (“Selectivity index A. baumannii” for short) is given as 8.3. Further, in [2], the EC50 was found to be 67.1 µM, the EC90 is 115 µM and the “Selectivity index P. carotovorum” value came to 0.6. Moreover, in data set [3], the EC50 turned out to be 4.8 µM, the EC90 came to 6.7 µM and the “Selectivity index P. aeruginosa (CCUG #17619)” value (shortened to “Selectivity index P. aeruginosa”) is given as 8.1. In data set [4], the EC50 stood at 5.2 µM, the EC90 worked out at 8 µM and the “Selectivity index K. pneumoniae (CCUG #58547)” value was 7.5. In addition, the EC50 at 24 h in [5] amounted to 43.4 µM. Also, in [6], the EC50 was 64.8 µM, the EC90 came out at 148 µM and the “Selectivity index E. coli” value worked out at 0.6. In addition, in the data set on E. cloacae (CCUG #6323T), the EC50 came out at 1 µM, the EC90 came to 1.2 µM and the “Selectivity index E. cloacae (CCUG #6323T)” value (“Selectivity index E. cloacae” for short) is given as 37.2. Moreover, in data set [7], the EC50 was 2.7 µM, the EC90 worked out at 3.2 µM and the “Selectivity index K. pneumoniae (CCUG #225T)” value was 14.4. In the data set with Plasmodium falciparum, the EC50 is 0.59 µM.
In the case of `N=C(N)Nc1ccc(-c2ccc(C(=O)N3CCc4cc(NC(=N)N)ccc43)o2)c(Cl)c1` [Compound 16, (5-(2-chloro-4-guanidinophenyl)furan-2-yl)(5-guanidinoindolin-1-yl)methanone], in data set [1], the EC50 was determined as 16.5 µM, it took 24.4 µM to reach the 90% level (EC90) and the “Selectivity index A. baumannii” value came out at 12.7. For the same compound, in data set [2], the EC50 stood at 70.9 µM, the 90% effect concentration (EC90) stood at 80.7 µM and the “Selectivity index P. carotovorum” value turned out to be 2.9. Also, in [3], the EC50 is 17.1 µM, the EC90 is 22.9 µM and the “Selectivity index P. aeruginosa” value came out at 12.2. Besides, in data set [4], the EC50 was 12.9 µM, the 90% effect level (EC90) was put at 15.3 µM and the “Selectivity index K. pneumoniae (CCUG #58547)” value stood at 16.2. In data set [5], this compound came in with an EC50 at 24 h of 241 µM. In data set [6], the EC50 was 13.1 µM, the EC90 stood at 19 µM and the “Selectivity index E. coli” value turned out to be 16.0. Also, in the data set on E. cloacae (CCUG #6323T), the EC50 is 3.5 µM, the EC90 is 7.9 µM and the “Selectivity index E. cloacae” value is on record as 60.1. In [7], the EC50 came out at 9.8 µM, it took 12.2 µM to reach the 90% level (EC90) and the “Selectivity index K. pneumoniae (CCUG #225T)” value is recorded as 21.4.
Regarding `N=C(N)Nc1ccc(-c2ccc(C(=O)N3CCc4cc(NC(=N)N)ccc43)o2)cc1` [Compound 17, (5-(4-guanidinophenyl)furan-2-yl)(5-guanidinoindolin-1-yl)methanone], the EC50 was 148 µM in data set [1]; 130 µM in [2]; 22.9 µM in [3]; above 200 µM in data set [4]; 1.7 µM in data set [6]; 5.6 µM in the data set on E. cloacae (CCUG #6323T). Besides, the EC50 in [7] was above 200 µM. Also, the EC90 was above 200 µM in [1]; 142 µM in data set [2]; 27 µM in data set [3]; above 200 µM in [4]; 4.3 µM in data set [6]; 8.6 µM with E. cloacae (CCUG #6323T). Also, the EC90 in data set [7] was above 200 µM. Moreover, the “Selectivity index A. baumannii” value in data set [1] is 1.3. In addition, the “Selectivity index P. carotovorum” value in [2] is 1.5. Also, the “Selectivity index P. aeruginosa” value in data set [3] was 8.5. The compound also had an EC50 at 24 h in data set [5] of 239 µM. Besides, the “Selectivity index E. coli” value in data set [6] is reported as 114.3. Further, in the data set with E. cloacae (CCUG #6323T), the “Selectivity index E. cloacae” value is on record as 34.8.

Values taken from publication PMC9404985, “Development of Dicationic Bisguanidine-Arylfuran Derivatives as Potent Agents against Gram-Negative Bacteria” (Antibiotics, 2022).
